Reference: PMC9090415, “Discovery of small molecule inhibitors of Plasmodium falciparum apicoplast DNA polymerase” (Journal of Enzyme Inhibition and Medicinal Chemistry, 2022)

Molecular target: P. falciparum apicoplast DNA polymerase (Pf-apPOL) (Plasmodium falciparum, UniProt Q8ILY1)
Assay: Fluorescence-based high-throughput DNA polymerase assay (molecular beacon), primary screen and dose-response;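 as to % inhibition ApPOL 90': test concentration in µM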;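 as to % inhibition apPOL 180': test concentration in µM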
Type: biochemical
Outline: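 Single-point screening used 10 µM compound with 20 nM polymerase, 20 nM hairpin substrate and 6 µM dNTPs for 90 min at 25 °C. Confirmatory titrations (2.5–80 µM) followed fluorescence at three times, and IC50 was derived from a fit including a cooperativity term n.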

[1] = primary screen value of the 186 hits; unit not given; 90 min, 10 µM

Sequence of P. falciparum apicoplast DNA polymerase (Pf-apPOL) (Q8ILY1 entry or part of it): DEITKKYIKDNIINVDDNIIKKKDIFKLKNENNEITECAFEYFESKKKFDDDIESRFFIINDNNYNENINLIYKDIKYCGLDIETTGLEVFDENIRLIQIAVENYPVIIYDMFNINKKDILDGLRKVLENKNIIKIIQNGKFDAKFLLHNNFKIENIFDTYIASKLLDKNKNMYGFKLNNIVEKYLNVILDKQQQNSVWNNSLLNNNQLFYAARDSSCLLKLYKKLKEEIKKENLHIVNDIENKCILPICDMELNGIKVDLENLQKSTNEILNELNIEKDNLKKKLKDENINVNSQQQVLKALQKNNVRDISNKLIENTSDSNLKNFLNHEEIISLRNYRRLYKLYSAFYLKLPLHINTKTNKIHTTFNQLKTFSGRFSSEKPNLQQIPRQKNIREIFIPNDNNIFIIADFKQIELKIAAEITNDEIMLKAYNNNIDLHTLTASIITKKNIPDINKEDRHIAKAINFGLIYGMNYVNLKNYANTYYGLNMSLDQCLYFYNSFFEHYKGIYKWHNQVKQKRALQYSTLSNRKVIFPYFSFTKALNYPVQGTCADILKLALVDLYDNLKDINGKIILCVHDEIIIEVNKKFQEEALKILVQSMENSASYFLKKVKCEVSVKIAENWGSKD

With CCCCOC(=O)CCCCCN1C(=O)C(=Cc2ccc(OC)cc2)SC1=S [Molecule 75, CCCCOC(=O)CCCCCN1C(=S)SC(=Cc2ccc(cc2)OC)C1=O] the “% inhibition Apo pol 10'” value (DRC-1; 10'; concentration 2.5) was -1.1804%, the “% inhibition Apo pol 10'” value (DRC-1; 10'; concentration 5) was 1.705% and the “% inhibition Apo pol 10'” value (DRC-1; 10'; concentration 10) was 11.988%. For the same compound, the “% inhibition Apo pol 10'” value (DRC-1; 10'; concentration 20) was 12.7699%, the “% inhibition Apo pol 10'” value (DRC-1; 10'; concentration 40) was 17.437% and the “% inhibition Apo pol 10'” value (DRC-1; 10'; concentration 80) was 85.0535%. For the same compound, the “% inhibition Apol 90'” value (DRC-1; 90'; concentration 2.5) was 3.6918%, the “% inhibition Apol 90'” value (DRC-1; 90'; concentration 5) was 7.9015% and the “% inhibition Apol 90'” value (DRC-1; 90'; concentration 10) was 19.2889%. For the same compound, the “% inhibition Apol 90'” value (DRC-1; 90'; concentration 20) was 19.2951%, the “% inhibition Apol 90'” value (DRC-1; 90'; concentration 40) was 23.7139% and the “% inhibition Apol 90'” value (DRC-1; 90'; concentration 80) was 84.541%. The “% inhibition apPOL 180'” value (DRC-1; 180'; concentration 2.5) was 6.465%, the “% inhibition apPOL 180'” value (DRC-1; 180'; concentration 5) was 11.5498% and the “% inhibition apPOL 180'” value (DRC-1; 180'; concentration 10) was 23.7615%. For the same compound, the “% inhibition apPOL 180'” value (DRC-1; 180'; concentration 20) was 23.8231%, the “% inhibition apPOL 180'” value (DRC-1; 180'; concentration 40) was 28.3946% and the “% inhibition apPOL 180'” value (DRC-1; 180'; concentration 80) was 81.7032%. For the same compound, the “% inhibition Apo pol 5'” value (DRC-2; 5'; concentration 2.5) was -2%, the “% inhibition Apo pol 5'” value (DRC-2; 5'; concentration 5) was 3% and the “% inhibition Apo pol 5'” value (DRC-2; 5'; concentration 10) was 20%. The “% inhibition Apo pol 5'” value (DRC-2; 5'; concentration 20) was 30%, the “% inhibition Apo pol 5'” value (DRC-2; 5'; concentration 40) was 45% and the “% inhibition Apo pol 5'” value (DRC-2; 5'; concentration 80) was 46%. For the same compound, the “% inhibition Apol 40'” value (DRC-2; 40'; concentration 2.5) was -0.735%, the “% inhibition Apol 40'” value (DRC-2; 40'; concentration 5) was 5% and the “% inhibition Apol 40'” value (DRC-2; 40'; concentration 10) was 24%. The “% inhibition Apol 40'” value (DRC-2; 40'; concentration 20) was 42%, the “% inhibition Apol 40'” value (DRC-2; 40'; concentration 40) was 66% and the “% inhibition Apol 40'” value (DRC-2; 40'; concentration 80) was 69%. The “% inhibition ApPOL 90'” value (DRC-2; 90'; concentration 2.5) was -1%, the “% inhibition ApPOL 90'” value (DRC-2; 90'; concentration 5) was 6.48% and the “% inhibition ApPOL 90'” value (DRC-2; 90'; concentration 10) was 25%. For the same compound, the “% inhibition ApPOL 90'” value (DRC-2; 90'; concentration 20) was 43%, the “% inhibition ApPOL 90'” value (DRC-2; 90'; concentration 40) was 71% and the “% inhibition ApPOL 90'” value (DRC-2; 90'; concentration 80) was 74%. For the same compound, the “% inhibition apPOL 180'” value (DRC-2; 180'; concentration 2.5) was -5%, the “% inhibition apPOL 180'” value (DRC-2; 180'; concentration 5) was 0.541% and the “% inhibition apPOL 180'” value (DRC-2; 180'; concentration 10) was 18%. The “% inhibition apPOL 180'” value (DRC-2; 180'; concentration 20) was 40%, the “% inhibition apPOL 180'” value (DRC-2; 180'; concentration 40) was 76% and the “% inhibition apPOL 180'” value (DRC-2; 180'; concentration 80) was 79%. For the same compound, the “DNA Pol” value [1] was 27 and the “DNA Pol” value (primary screen value, head "DNA Pol", unit not given; 90 min, 10 µM) was 27.

With O=C(Cn1ccc2c(=O)[nH]ccc21)Nc1ccccc1Cl [Molecule 19, O=C(Cn1ccc2c1cc[nH]c2=O)Nc1ccccc1Cl] the “% inhibition Apo pol 10'” value (DRC-1; concentration 2.5; 10') was 11.0481%, the “% inhibition Apol 90'” value (DRC-1; concentration 2.5; 90') was 3.184% and the “% inhibition apPOL 180'” value (DRC-1; concentration 2.5; 180') was -2.947%. The “% inhibition Apo pol 10'” value (DRC-1; concentration 5; 10') was 18.9507%, the “% inhibition Apol 90'” value (DRC-1; concentration 5; 90') was 7.548% and the “% inhibition apPOL 180'” value (DRC-1; concentration 5; 180') was -2.382%. The “% inhibition Apo pol 10'” value (DRC-1; concentration 10; 10') was 79.9443%, the “% inhibition Apol 90'” value (DRC-1; concentration 10; 90') was 71.2049% and the “% inhibition apPOL 180'” value (DRC-1; concentration 10; 180') was 56.5053%. The “% inhibition Apo pol 10'” value (DRC-1; concentration 20; 10') was 88.2896%, the “% inhibition Apol 90'” value (DRC-1; concentration 20; 90') was 90.2431% and the “% inhibition apPOL 180'” value (DRC-1; concentration 20; 180') was 88.4548%. For the same compound, the “% inhibition Apo pol 10'” value (DRC-1; concentration 40; 10') was 86.4384%, the “% inhibition Apol 90'” value (DRC-1; concentration 40; 90') was 91.2458% and the “% inhibition apPOL 180'” value (DRC-1; concentration 40; 180') was 93.0665%. The “% inhibition Apo pol 10'” value (DRC-1; concentration 80 (unit not given); 10') was 78.354%, the “% inhibition Apol 90'” value (DRC-1; concentration 80; 90') was 86.1065% and the “% inhibition apPOL 180'” value (DRC-1; concentration 80; 180') was 89.6716%. For the same compound, the “% inhibition Apol 40'” value (DRC-2; 40'; concentration 10) was 65%, the “% inhibition Apol 40'” value (DRC-2; 40'; concentration 40) was 65% and the “% inhibition apPOL 180'” value (DRC-2; 180'; concentration 20) was 77%. For the same compound, the “% inhibition apPOL 180'” value (DRC-2; 180'; concentration 40) was 77%, the “% inhibition Apo pol 5'” value (DRC-2; concentration 2.5; 5') was 15% and the “% inhibition Apol 40'” value (DRC-2; concentration 2.5; 40') was 14%. The “% inhibition ApPOL 90'” value (DRC-2; concentration 2.5; 90') was 9%, the “% inhibition apPOL 180'” value (DRC-2; concentration 2.5; 180') was -0.373% and the “% inhibition Apo pol 5'” value (DRC-2; concentration 5; 5') was 30%. The “% inhibition Apol 40'” value (DRC-2; concentration 5; 40') was 36%, the “% inhibition ApPOL 90'” value (DRC-2; concentration 5; 90') was 32% and the “% inhibition apPOL 180'” value (DRC-2; concentration 5; 180') was 18%. For the same compound, the “% inhibition Apo pol 5'” value (DRC-2; concentration 10; 5') was 48%, the “% inhibition Apol 40'” value (DRC-2; concentration 10; 40') was 65% and the “% inhibition ApPOL 90'” value (DRC-2; concentration 10; 90') was 67%. For the same compound, the “% inhibition apPOL 180'” value (DRC-2; concentration 10; 180') was 63%, the “% inhibition Apo pol 5'” value (DRC-2; concentration 20; 5') was 44% and the “% inhibition Apol 40'” value (DRC-2; concentration 20; 40') was 68%. For the same compound, the “% inhibition ApPOL 90'” value (DRC-2; concentration 20; 90') was 73%, the “% inhibition apPOL 180'” value (DRC-2; concentration 20; 180') was 77% and the “% inhibition Apo pol 5'” value (DRC-2; concentration 40; 5') was 37%. The “% inhibition Apol 40'” value (DRC-2; concentration 40; 40') was 65%, the “% inhibition ApPOL 90'” value (DRC-2; concentration 40; 90') was 70% and the “% inhibition apPOL 180'” value (DRC-2; concentration 40; 180') was 77%. For the same compound, the “% inhibition Apo pol 5'” value (DRC-2; concentration 80; 5') was 28%, the “% inhibition Apol 40'” value (DRC-2; concentration 80; 40') was 56% and the “% inhibition ApPOL 90'” value (DRC-2; concentration 80; 90') was 64%. For the same compound, the “% inhibition apPOL 180'” value (DRC-2; concentration 80; 180') was 72%, the “DNA Pol” value [1] was 82 and the “DNA Pol” value (primary screen value; head prints only 'DNA Pol'; 90 min, 10 µM) was 82.

In the case of O=C(Cc1cc(=O)[nH]c(SCc2ccccc2)n1)Nc1ccc2c(c1)OCO2 [Molecule 46], the IC50 (supplemental file 2, sheet IC50 nontoxic compounds; Pf-apPOL) is reported as 15.5 µM.

With COc1ccc(S(=O)(=O)/N=C2\NC(=O)/C(=C3\C(=O)Nc4ccc([N+](=O)[O-])cc43)S2)cc1 [KU0054985] the “DNA Pol” value ('DNA Pol' of the 186 hits list (primary screen result); unit not given; 90 min, 10 µM) was 41, the “% inhibition Apo pol 10'” value (DRC-1; 10'; concentration 2.5) was 18.5864% and the “% inhibition Apo pol 10'” value (DRC-1; 10'; concentration 5) was 36.9179%. For the same compound, the “% inhibition Apo pol 10'” value (DRC-1; 10'; concentration 10) was 67.7559%, the “% inhibition Apo pol 10'” value (DRC-1; 10'; concentration 20) was 96.4602% and the “% inhibition Apo pol 10'” value (DRC-1; 10'; concentration 40) was 99.5336%. For the same compound, the “% inhibition Apo pol 10'” value (DRC-1; 10'; concentration 80) was 99.5405%, the “% inhibition Apol 90'” value (DRC-1; 90'; concentration 2.5) was 1.843% and the “% inhibition Apol 90'” value (DRC-1; 90'; concentration 5) was 6.911%. For the same compound, the “% inhibition Apol 90'” value (DRC-1; 90'; concentration 10) was 25.9736%, the “% inhibition Apol 90'” value (DRC-1; 90'; concentration 20) was 66.8469% and the “% inhibition Apol 90'” value (DRC-1; 90'; concentration 40) was 95.4915%. For the same compound, the “% inhibition Apol 90'” value (DRC-1; 90'; concentration 80) was 99.0869%, the “% inhibition apPOL 180'” value (DRC-1; 180'; concentration 2.5) was -5.136% and the “% inhibition apPOL 180'” value (DRC-1; 180'; concentration 5) was -1.681%. The “% inhibition apPOL 180'” value (DRC-1; 180'; concentration 10) was 15.3394%, the “% inhibition apPOL 180'” value (DRC-1; 180'; concentration 20) was 51.5386% and the “% inhibition apPOL 180'” value (DRC-1; 180'; concentration 40) was 94.1836%. The “% inhibition apPOL 180'” value (DRC-1; 180'; concentration 80) was 99.3305%, the “% inhibition Apo pol 5'” value (DRC-2; 5'; concentration 2.5) was 4% and the “% inhibition Apo pol 5'” value (DRC-2; 5'; concentration 5) was 9%. For the same compound, the “% inhibition Apo pol 5'” value (DRC-2; 5'; concentration 10) was 30%, the “% inhibition Apo pol 5'” value (DRC-2; 5'; concentration 20) was 52% and the “% inhibition Apo pol 5'” value (DRC-2; 5'; concentration 40) was 63%. The “% inhibition Apo pol 5'” value (DRC-2; 5'; concentration 80) was 67%, the “% inhibition Apol 40'” value (DRC-2; 40'; concentration 2.5) was 3.68% and the “% inhibition Apol 40'” value (DRC-2; 40'; concentration 5) was 6%. For the same compound, the “% inhibition Apol 40'” value (DRC-2; 40'; concentration 10) was 20%, the “% inhibition Apol 40'” value (DRC-2; 40'; concentration 20) was 38% and the “% inhibition Apol 40'” value (DRC-2; 40'; concentration 40) was 74%. For the same compound, the “% inhibition Apol 40'” value (DRC-2; 40'; concentration 80) was 82%, the “% inhibition ApPOL 90'” value (DRC-2; 90'; concentration 2.5) was 3.52% and the “% inhibition ApPOL 90'” value (DRC-2; 90'; concentration 5) was 5%. The “% inhibition ApPOL 90'” value (DRC-2; 90'; concentration 10) was 18%, the “% inhibition ApPOL 90'” value (DRC-2; 90'; concentration 20) was 33% and the “% inhibition ApPOL 90'” value (DRC-2; 90'; concentration 40) was 75%. For the same compound, the “% inhibition ApPOL 90'” value (DRC-2; 90'; concentration 80) was 85%, the “% inhibition apPOL 180'” value (DRC-2; 180'; concentration 2.5) was 4.38% and the “% inhibition apPOL 180'” value (DRC-2; 180'; concentration 5) was 2.14%. The “% inhibition apPOL 180'” value (DRC-2; 180'; concentration 10) was 13%, the “% inhibition apPOL 180'” value (DRC-2; 180'; concentration 20) was 26% and the “% inhibition apPOL 180'” value (DRC-2; 180'; concentration 40) was 72%. For the same compound, the “% inhibition apPOL 180'” value (DRC-2; 180'; concentration 80) was 88% and the “DNA Pol” value (primary screen value of the library well; unit not given; 90 min, 10 µM) was 41.
